Patent US9233095B2, “Small molecule RNase inhibitors and methods of use” (University of Rochester, priority 2011, dated 2016)

How the values were obtained:
A. baumannii = assay: CLSI broth microdilution MIC; assay type: cell-based, Acinetobacter baumannii
Source text: In some examples, compounds can be further assayed using the Mueller Hinton (MH) broth antibacterial assay as specified by the Clinical and Laboratory Standards Institute MIC broth microdilution protocol (see Methods for Dilution Antimicrobial Susceptibility Tests for Bacteria That Grow Aerobically; Approved Standard, In The Clinical and Laboratory Standards Institute (CLSI, formerly NCCLS), 7th ed., January 2006, 26 (2), M7-A7; see also Performance Standards for Antimicrobial Susceptibility Testing; Eighteenth Informational Supplement, In The Clinical and Laboratory Standards Institute (CLSI, formerly NCCLS), January 2008, 28 (1), M100-S18).
With the exception of RN4220-derivatives, in vitro activities of RNPA1000 against bacteria were determined by the broth microdilution method according to the Clinical and Laboratory Standards Institute (CLSI) guidelines using cation adjusted Mueller-Hinton broth or MH broth supplemented with 5% lysed horse blood (for testing Streptotococcus spp.). Microtiter plates containing serial dilutions of RNPA1000 (0, 4, 8, 16, 32, 64, and 128 μg/ml) were inoculated with 10^5 colony forming units (CFU)/ml and incubated for 18 hr at 37° C. […] The MIC value for each S. aureus strain was determined to be the median score of replicate measurements (n=5). Wells containing concentrations of RNPA1000≧MIC were plated for minimal bactericidal measurement. Where possible, experiments with VRSA strains were performed in a laminar flow hood to minimize potential for equipment contamination. For RN4220 cells containing plasmid vector (pCN51), RnpA overproducing plasmid (pRNPA-S) or RnpA underproducing plasmid (pRNPA-A.S.) in vitro antimicrobial activity of RNPA1000 was performed by the microdilution method as described above, except that cells were grown in Tryptic Soy Broth medium supplemented with 2.5 μM CdCl2 and 0, 1, 2, 4, 8, 16, 32, 64, or 128 μg/ml RNPA1000. Time-kill assays were also performed to monitor the antimicrobial properties of RNPA1000 for S. aureus strain UAMS-1 in the absence and presence of 0.25, 0.5, 2, and 4 times the strain's MIC for oxacillin (1 μg/ml), rifampicin (0.5 μg/ml), vancomycin (2 μg/ml), or daptomycin (1 μg/ml). The indicated amount of RNPA1000 and/or commercial antibiotic were added to mid-exponential phase (2×10^8 cfu/ml) S. aureus strain UAMS-1 cells and incubated at 37° C. Aliquots were removed at 0, 2, 4, 8, and 24 hr post-antimicrobial challenge, serial diluted, and plated to enumerate resulting cfu/ml. All time-kill assays were repeated at least 3 times.

HepG2 human hepatocytes = assay: MTT cytotoxicity assay; assay type: cell-based; details: for HepG2 cell toxicity: 24 hr exposure, any concentration tested (25, 50 μg/ml); for HepG2 cytotoxicity: 48 hr exposure
Protocol: It was then assessed whether RnpA-inhibitory agent concentrations corresponding to the effective bacterial MIC values (10-50 μg/ml) elicited human cell cytotoxicity. HepG2 human hepatocytes (10^5 cells) were seeded in individual wells of a microtitre plate and incubated for 16 hr at 37° C. with 5% carbon dioxide in Dulbecco's Modified Eagle Media supplemented with 10% fetal bovine serum. Cells were then challenged with Mitomycin C (5 μg/ml; positive control) or 0, 25, or 50 μg/ml RNPA1000 for either 24 or 48 hrs. Cell viability was measured spectrophotometrically (570 nm) following the addition and subsequent reduction of tetrazolium salt (MTT) within metabolically active cells, as per the manufacturer's recommendations (American Type Culture Collection; Manassas, Va.).

Cc1cc(/C=C(/C#N)C(=O)Nc2cccc(Br)c2)c(C)n1-c1ccc(C(=O)O)cc1 [RNPA1000]
effect of efflux inhibitor reserpine on RNPA1000 susceptibility (A. baumannii): no effect | effect on growth (A. baumannii): did not affect | MIC (A. baumannii; A. baumannii Isolate 2): >64 µg/mL | MIC (A. baumannii; A. baumannii Isolate 3): >64 µg/mL | MIC (A. baumannii; A. baumannii Isolate 4): >64 µg/mL | MIC (A. baumannii; A. baumannii Isolate 5): >64 µg/mL | MIC (A. baumannii; A. baumannii Isolate 5 + reserpine): >64 µg/mL | MIC (A. baumannii; Acinetobacter baumannii): > 64 µg/mL | HepG2 cell toxicity (HepG2 human hepatocytes): not toxic | HepG2 cell toxicity (HepG2 human hepatocytes; listed as RNP1000): did not cause human HepG2 cell toxicity | HepG2 cytotoxicity (HepG2 human hepatocytes; 25 μg/ml): mildly toxic | HepG2 cytotoxicity (HepG2 human hepatocytes; 25 μg/ml, listed as RNP1000): mild cytotoxicity | HepG2 cytotoxicity (HepG2 human hepatocytes; higher concentrations than 25 μg/ml): increased toxicity
